Numbers after ± are expanded uncertainties.
Assays:
[1] = Liquid; for mass density: 298.15 K, 101.33 kPa, Pycnometric method
[2] = refractive index (Na D-line) (dimensionless); conditions: 298.15 K; 101.33 kPa; Liquid; Standard Abbe refractometry

mass density [1]	refractive index [2]	SMILES	other results
781.3 ± 4.5 kg/m3	1.3752 ± 0.0012	CC(C)O [propan-2-ol]	vapor or sublimation pressure ([1]; 355.05 K): 95.5 ± 5 kPa
805.8 ± 4.8 kg/m3	1.3974 ± 0.0012	CCCCO [butan-1-ol]	vapor or sublimation pressure ([1]; 389.35 K): 95.5 ± 5 kPa
784.9 ± 4.5 kg/m3	1.3594 ± 0.0012	CCO [ethanol]	vapor or sublimation pressure ([1]; 349.95 K): 95.5 ± 5 kPa
797.8 ± 4.7 kg/m3	1.3939 ± 0.0012	CC(C)CO [2-methyl-1-propanol]	vapor or sublimation pressure ([1]; 379.65 K): 95.5 ± 5 kPa
786.4 ± 4.6 kg/m3	1.3265 ± 0.0012	CO [methanol]	vapor or sublimation pressure ([1]; 336.25 K): 95.5 ± 5 kPa
799.6 ± 4.7 kg/m3	1.3837 ± 0.0012	CCCO [propan-1-ol]	vapor or sublimation pressure ([1]; 368.85 K): 95.5 ± 5 kPa
781.2 ± 4.5 kg/m3	1.3852 ± 0.0012	CC(C)(C)O [2-methylpropan-2-ol]	vapor or sublimation pressure ([1]; 354.15 K): 95.5 ± 5 kPa
1030 ± 7.7 kg/m3	1.5395 ± 0.0012	Cc1cccc(O)c1 [3-methylphenol]	vapor or sublimation pressure ([1]; 473.75 K): 95.5 ± 5 kPa
802.4 ± 4.7 kg/m3	1.3953 ± 0.0012	CCC(C)O (configuration not stated) [butan-2-ol]	vapor or sublimation pressure ([1]; 371.26 K): 95.5 ± 5 kPa

— the NIST ThermoML archive (doi:10.1016/j.jct.2006.03.006)
